Measurements: patent EP2338890A1, “4,7-Diazaindole derivatives and their use as fungicides” (Bayer CropScience AG, priority 2009, dated 2011)
Read-outs that look alike come from different tables or passages of the source.

Experiments:
Alternaria solani = experiment: Alternaria test (tomato) / preventive; format: in vivo; conditions: 500ppm of active ingredient, evaluated 7 days after the inoculation
Procedure: (§1) To produce a suitable preparation of active compound, 1 part by weight of active compound is mixed with the stated amounts of solvent and emulsifier, and the concentrate is diluted with water to the desired concentration.
To test for preventive activity, young plants are sprayed with the preparation of active compound at the stated rate of application. One day after this treatment, the plants are inoculated with an aqueous spore suspension of Alternaria solani. The plants remain for one day in an incubation cabinet at approximately 22°C and a relative atmospheric humidity of 100%. Then the plants are placed in an incubation cabinet at approximately 20°C and a relative atmospheric humidity of 96%.
The test is evaluated 7 days after the inoculation. 0% means an efficacy which corresponds to that of the control while an efficacy of 100% means that no disease is observed.

[1] = logP at pH 3.5, given with the characterisation data; format: physicochemical; conditions: pH3.5
Pyrenophora teres = experiment: Pyrenophora test (barley) / preventive; format: in vivo; conditions: 500ppm of active ingredient, evaluated 7-9 days after the inoculation
Procedure: as §1
To test for preventive activity, young plants are sprayed with the preparation of active compound at the stated rate of application. One day after this treatment, the plants are inoculated with an aqueous spore suspension of Pyrenophora teres. The plants remain for 48 hours in an incubation cabinet at 22°C and a relative atmospheric humidity of 100%. Then the plants are placed in a greenhouse at a temperature of approximately 20°C and a relative atmospheric humidity of approximately 80%.
The test is evaluated 7-9 days after the inoculation. 0% means an efficacy which corresponds to that of the control while an efficacy of 100% means that no disease is observed.

Fusarium graminearum [2] = experiment: microbe, parasite or virus in culture; format: cell-based
Fusarium proliferatum = experiment: microbe, parasite or virus in culture; format: cell-based; conditions: 120 h, read-out: inhibition of Fumonisin FB1 production
Botrytis cinerea = experiment: Botrytis test (beans) / protective; format: in vivo; conditions: 250ppm of active ingredient, lesion size 2 days after the inoculation
Procedure: as §1
To test for protective activity, young plants are sprayed with the preparation of active compound. After the spray coating has dried on, 2 small pieces of agar covered with growth of Botrytis cinerea are placed on each leaf. The inoculated plants are placed in a darkened chamber at 20°C and a relative atmospheric humidity of 100%.
2 days after the inoculation, the size of the lesions on the leaves is evaluated. 0% means an efficacy which corresponds to that of the control, while an efficacy of 100% means that no disease is observed.

Venturia inaequalis = experiment: Venturia test (apples) / protective; format: in vivo; conditions: 100ppm of active ingredient, evaluated 10 days after the inoculation
Procedure: as §1
To test for protective activity, young plants are sprayed with the preparation of active compound at the stated rate of application. After the spray coating has dried on, the plants are inoculated with an aqueous conidia suspension of the causal agent of apple scab (Venturia inaequalis) and then remain for 1 day in an incubation cabinet at approximately 20°C and a relative atmospheric humidity of 100 %.
The plants are then placed in a greenhouse at approximately 21°C and a relative atmospheric humidity of approximately 90 %.
The test is evaluated 10 days after the inoculation. 0% means an efficacy which corresponds to that of the control, while an efficacy of 100% means that no disease is observed.

Fusarium graminearum [3] = format: in vivo; conditions: barley, preventive, 1000ppm of active ingredient, evaluated 5 days after the inoculation

| Structure (SMILES) | efficacy (Alternaria solani) [%] | logD [1] | efficacy (Pyrenophora teres) [%] | inhibition at 50 µM (Fusarium graminearum [2]; 72 h, read-out: Growth inhibition of Fusarium graminearum) [%] | inhibition at 50 µM (Fusarium graminearum [2]; 168 h, read-out: inhibition of DON/AcDON) [%] | inhibition at 50 µM (Fusarium proliferatum) [%] | efficacy (Botrytis cinerea) [%] | efficacy (Venturia inaequalis) [%] | efficacy (Fusarium graminearum [3]) [%] |
| --- | --- | --- | --- | --- | --- | --- | --- | --- | --- |
| Fc1ccc(-c2c(-c3ccncc3)[nH]c3nccnc23)cc1 [Compound 1, 7-(4-fluorophenyl)-6-(pyridin-4-yl)-5H-Pyrrolo[2,3-b]pyrazine] | ≥ 70 | 1.33 | ≥ 70 | > 80 | > 80 | > 80 | – | – | – |
| C#CCn1c(-c2ccncc2)c(-c2ccc(F)cc2)c2nccnc21 [Compound 2, 7-(4-fluorophenyl)-5-(prop-2-ylyl)-6-(pyridin-4-yl)-5H-pyrrolo[2,3-b]pyrazine] | ≥ 70 | 2.22 | ≥ 70 | – | – | > 80 | ≥ 70 | ≥ 70 | ≥ 70 |
